Data published in PubChem BioAssay AID2060501 (Molecular Pharmacology Branch, DTP, NCI, 2025).

System: 282377-053-R-J1-PDC complex spheroids, viability
Experiment: Anticancer human tumor 282377-053-R-J1-PDC patient-derived colon adenocarcinoma cell line growth inhibition [GQUAD]
Details: for IC50: curve of first compound; for viability, T/C: stronger effect = lower value
Procedure, shortened: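 Viability of tumor cells grown as complex spheroids with endothelial and stromal cells, exposed to drug combinations. Top concentration at or near clinical Cmax (else 10 microM), diluted in half-log increments.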

[1] = second compound 0.0316 µM, first compound 0.0316 µM
[2] = second compound 0.0316 µM, first compound 0.1 µM
[3] = second compound 0.0316 µM, first compound 0.316 µM
[4] = second compound 0.0316 µM, first compound 1 µM
[5] = second compound 0.0316 µM, first compound 3.16 µM
[6] = second compound 0.0316 µM, first compound 10 µM
[7] = second compound 0.1 µM, first compound 0.0316 µM
[8] = second compound 0.1 µM, first compound 0.1 µM
[9] = second compound 0.1 µM, first compound 0.316 µM
[10] = second compound 0.1 µM, first compound 1 µM
[11] = second compound 0.1 µM, first compound 3.16 µM
[12] = second compound 0.1 µM, first compound 10 µM
[13] = second compound 0.316 µM, first compound 0.0316 µM
[14] = second compound 0.316 µM, first compound 0.1 µM
[15] = second compound 0.316 µM, first compound 0.316 µM
[16] = second compound 0.316 µM, first compound 1 µM
[17] = second compound 0.316 µM, first compound 3.16 µM
[18] = second compound 0.316 µM, first compound 10 µM
[19] = second compound 1 µM, first compound 0.0316 µM
[20] = second compound 1 µM, first compound 0.1 µM
[21] = second compound 1 µM, first compound 0.316 µM
[22] = second compound 1 µM, first compound 1 µM
[23] = second compound 1 µM, first compound 3.16 µM
[24] = second compound 1 µM, first compound 10 µM
[25] = second compound 3.16 µM, first compound 0.0316 µM
[26] = second compound 3.16 µM, first compound 0.1 µM
[27] = second compound 3.16 µM, first compound 0.316 µM
[28] = second compound 3.16 µM, first compound 1 µM
[29] = second compound 3.16 µM, first compound 3.16 µM
[30] = second compound 3.16 µM, first compound 10 µM
[31] = second compound 10 µM, first compound 0.0316 µM
[32] = second compound 10 µM, first compound 0.1 µM
[33] = second compound 10 µM, first compound 0.316 µM
[34] = second compound 10 µM, first compound 1 µM
[35] = second compound 10 µM, first compound 3.16 µM
[36] = second compound 10 µM, first compound 10 µM
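Also: spheroids exposed to compounds for 7 days before readout.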
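For viability, T/C in this document: percent of vehicle DMSO control viability with 100% = untreated-like growth.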

CC1COCCN1c1cc(C2(O)CC3CCC(C2)O3)c2cnn(-c3ccn[nH]3)c2n1 (stereo not given) + CN(C)c1ccc(Nc2c3ccc(NC(=O)CCN4CCCC4)cc3nc3cc(NC(=O)CCN4CCCC4)ccc23)cc1
IC50 (second compound 0.0316 µM): 730 nM | IC50 (second compound 0.1 µM): 425 nM | IC50 (second compound 0.316 µM): 632 nM | IC50 (second compound 1 µM): 649 nM | IC50 (second compound 3.16 µM): 825 nM | IC50 (second compound 10 µM): 734 nM | viability, T/C [1]: 93.4% | viability, T/C [2]: 81.5% | viability, T/C [3]: 65.1% | viability, T/C [4]: 44.9% | viability, T/C [5]: 28.1% | viability, T/C [6]: 20.9% | viability, T/C [7]: 82.5% | viability, T/C [8]: 87.5% | viability, T/C [9]: 55.4% | viability, T/C [10]: 37.3% | viability, T/C [11]: 37.6% | viability, T/C [12]: 22.6% | viability, T/C [13]: 87.2% | viability, T/C [14]: 92.6% | viability, T/C [15]: 58.3% | viability, T/C [16]: 42.3% | viability, T/C [17]: 34.8% | viability, T/C [18]: 20.6% | viability, T/C [19]: 102% | viability, T/C [20]: 89% | viability, T/C [21]: 63.6% | viability, T/C [22]: 41% | viability, T/C [23]: 29.8% | viability, T/C [24]: 21.5% | viability, T/C [25]: 81.9% | viability, T/C [26]: 81.2% | viability, T/C [27]: 80.9% | viability, T/C [28]: 43.7% | viability, T/C [29]: 33.3% | viability, T/C [30]: 23.4% | viability, T/C [31]: 93% | viability, T/C [32]: 72.8% | viability, T/C [33]: 86.6% | viability, T/C [34]: 37.5% | viability, T/C [35]: 28.6% | viability, T/C [36]: 21.3%

CCCS(=O)(=O)Nc1ccc(F)c(C(=O)c2c[nH]c3ncc(-c4ccc(Cl)cc4)cc23)c1F + Cc1[nH]c2ccc(F)cc2c1-c1nc2c3cccnc3c3ncccc3c2[nH]1
IC50 (second compound 0.0316 µM): 2210 nM | IC50 (second compound 0.1 µM): 2130 nM | IC50 (second compound 0.316 µM): 2150 nM | IC50 (second compound 1 µM): 2040 nM | IC50 (second compound 3.16 µM): 781 nM | IC50 (second compound 10 µM): < 31.6 nM | viability, T/C [1]: 95.9% | viability, T/C [2]: 90.4% | viability, T/C [3]: 95.1% | viability, T/C [4]: 92.5% | viability, T/C [5]: 30.9% | viability, T/C [6]: 14.5% | viability, T/C [7]: 130% | viability, T/C [8]: 114% | viability, T/C [9]: 89% | viability, T/C [10]: 81.2% | viability, T/C [11]: 31.7% | viability, T/C [12]: 13.2% | viability, T/C [13]: 96.4% | viability, T/C [14]: 83.7% | viability, T/C [15]: 81.8% | viability, T/C [16]: 91.4% | viability, T/C [17]: 30.5% | viability, T/C [18]: 16.1% | viability, T/C [19]: 108% | viability, T/C [20]: 120% | viability, T/C [21]: 74.3% | viability, T/C [22]: 93.2% | viability, T/C [23]: 23.9% | viability, T/C [24]: 11.8% | viability, T/C [25]: 89.2% | viability, T/C [26]: 66.7% | viability, T/C [27]: 71.9% | viability, T/C [28]: 45.3% | viability, T/C [29]: 9.06% | viability, T/C [30]: 6.19% | viability, T/C [31]: 33.6% | viability, T/C [32]: 31.9% | viability, T/C [33]: 23.1% | viability, T/C [34]: 22.8% | viability, T/C [35]: 3.93% | viability, T/C [36]: 4.48%

CC(=O)O[C@H]1C(=O)[C@@]2(C)[C@H]([C@H](OC(=O)c3ccccc3)[C@]3(O)C[C@H](OC(=O)[C@H](O)[C@@H](NC(=O)c4ccccc4)c4ccccc4)C(C)=C1C3(C)C)[C@]1(OC(C)=O)CO[C@@H]1C[C@@H]2O + Cc1cnc(CNC(=O)c2c(=O)c3ccc(N4CCCN(C)CC4)nc3n3c2sc2ccccc23)cn1
IC50 (second compound 0.0316 µM): < 31.6 nM | IC50 (second compound 0.1 µM): < 31.6 nM | IC50 (second compound 0.316 µM): < 31.6 nM | IC50 (second compound 1 µM): < 31.6 nM | IC50 (second compound 3.16 µM): < 31.6 nM | IC50 (second compound 10 µM): < 31.6 nM | viability, T/C [1]: 42.7% | viability, T/C [2]: 17.2% | viability, T/C [3]: 21.4% | viability, T/C [4]: 18.4% | viability, T/C [5]: 20.4% | viability, T/C [6]: 24.9% | viability, T/C [7]: 44.1% | viability, T/C [8]: 22.9% | viability, T/C [9]: 23.9% | viability, T/C [10]: 21.6% | viability, T/C [11]: 26.1% | viability, T/C [12]: 27.9% | viability, T/C [13]: 47.7% | viability, T/C [14]: 24.4% | viability, T/C [15]: 24.9% | viability, T/C [16]: 31.5% | viability, T/C [17]: 33.7% | viability, T/C [18]: 33.9% | viability, T/C [19]: 38.1% | viability, T/C [20]: 26.6% | viability, T/C [21]: 24.6% | viability, T/C [22]: 32.1% | viability, T/C [23]: 35.2% | viability, T/C [24]: 31.4% | viability, T/C [25]: 37.8% | viability, T/C [26]: 23.8% | viability, T/C [27]: 29.8% | viability, T/C [28]: 25.2% | viability, T/C [29]: 28.4% | viability, T/C [30]: 30.4% | viability, T/C [31]: 25.5% | viability, T/C [32]: 17% | viability, T/C [33]: 23% | viability, T/C [34]: 24.1% | viability, T/C [35]: 35.6% | viability, T/C [36]: 18.4%

CC(C)n1c(=O)n(C)c2cnc3cc(F)c(-c4ccc(OCCCN5CCCCC5)nc4)cc3c21 + Cc1[nH]c2ccc(F)cc2c1-c1nc2c3cccnc3c3ncccc3c2[nH]1
IC50 (second compound 0.0316 µM): > 10000 nM | IC50 (second compound 0.1 µM): > 10000 nM | IC50 (second compound 0.316 µM): > 10000 nM | IC50 (second compound 1 µM): > 10000 nM | IC50 (second compound 3.16 µM): 6160 nM | IC50 (second compound 10 µM): 43.5 nM | viability, T/C [1]: 123% | viability, T/C [2]: 91.5% | viability, T/C [3]: 123% | viability, T/C [4]: 104% | viability, T/C [5]: 101% | viability, T/C [6]: 94.1% | viability, T/C [7]: 101% | viability, T/C [8]: 118% | viability, T/C [9]: 94.2% | viability, T/C [10]: 88.6% | viability, T/C [11]: 118% | viability, T/C [12]: 92.6% | viability, T/C [13]: 132% | viability, T/C [14]: 115% | viability, T/C [15]: 100% | viability, T/C [16]: 112% | viability, T/C [17]: 108% | viability, T/C [18]: 91.5% | viability, T/C [19]: 106% | viability, T/C [20]: 116% | viability, T/C [21]: 107% | viability, T/C [22]: 112% | viability, T/C [23]: 98.4% | viability, T/C [24]: 93% | viability, T/C [25]: 89% | viability, T/C [26]: 78.8% | viability, T/C [27]: 86.7% | viability, T/C [28]: 66.3% | viability, T/C [29]: 73.6% | viability, T/C [30]: 36.5% | viability, T/C [31]: 53% | viability, T/C [32]: 40.7% | viability, T/C [33]: 44.3% | viability, T/C [34]: 29.6% | viability, T/C [35]: 23.9% | viability, T/C [36]: 19%

C#Cc1c(F)ccc2cc(O)cc(-c3ncc4c(N5CC6CCC(C5)N6)nc(OCC56CCCN5CC(F)C6)nc4c3F)c12 (stereo not given) + Cc1cnc(CNC(=O)c2c(=O)c3ccc(N4CCCN(C)CC4)nc3n3c2sc2ccccc23)cn1
IC50 (second compound 0.0316 µM): > 10000 nM | IC50 (second compound 0.1 µM): > 10000 nM | IC50 (second compound 0.316 µM): > 10000 nM | IC50 (second compound 1 µM): > 10000 nM | IC50 (second compound 3.16 µM): 4140 nM | IC50 (second compound 10 µM): < 31.6 nM | viability, T/C [1]: 102% | viability, T/C [2]: 87.4% | viability, T/C [3]: 122% | viability, T/C [4]: 83.2% | viability, T/C [5]: 100% | viability, T/C [6]: 94.7% | viability, T/C [7]: 127% | viability, T/C [8]: 109% | viability, T/C [9]: 89.9% | viability, T/C [10]: 86% | viability, T/C [11]: 120% | viability, T/C [12]: 93.5% | viability, T/C [13]: 86.5% | viability, T/C [14]: 102% | viability, T/C [15]: 85.5% | viability, T/C [16]: 77.1% | viability, T/C [17]: 91.3% | viability, T/C [18]: 83.9% | viability, T/C [19]: 64.3% | viability, T/C [20]: 47.6% | viability, T/C [21]: 47.2% | viability, T/C [22]: 59.2% | viability, T/C [23]: 71.8% | viability, T/C [24]: 58.5% | viability, T/C [25]: 46.5% | viability, T/C [26]: 53% | viability, T/C [27]: 58.5% | viability, T/C [28]: 52.2% | viability, T/C [29]: 51.7% | viability, T/C [30]: 44.1% | viability, T/C [31]: 36.8% | viability, T/C [32]: 40.3% | viability, T/C [33]: 52.9% | viability, T/C [34]: 46% | viability, T/C [35]: 45.7% | viability, T/C [36]: 37.8%
